Assay results reported in patent publication US9695155B2, “Herbicidal substituted pyrimidinyloxy benzene compounds” (E. I. DU PONT DE NEMOURS AND COMPANY, priority 2013, dated 2017).

Legend:
barnyardgrass = assay: Test E postemergence; format: in vivo, Echinochloa crus-galli; conditions: Echinochloa crus-galli, post-emergence, read-out: Plant response rating, Barnyardgrass
From the text: (§1) Seeds of plant species selected from corn (Zea mays), soybean (Glycine max), velvetleaf (Abutilon theophrasti), lambsquarters (Chenopodium album), wild poinsettia (Euphorbia heterophylla), palmer pigweed (Amaranthus palmeri), waterhemp (common waterhemp, Amaranthus rudis), surinam grass (Brachiaria decumbens), large (Lg) crabgrass (Digitaria sanguinalis), Brazilian crabgrass (Digitaria horizontalis), fall panicum (Panicum dichotomiflorum), giant foxtail (Setaria faberii), green foxtail (Setaria viridis), goosegrass (Eleusine indica), johnsongrass (Sorghum halepense), ragweed (common ragweed, Ambrosia elatior), barnyardgrass (Echinochloa crus-galli), sandbur (southern sandbur, Cenchrus echinatus), arrowleaf sida (Sida rhombifolia), Italian ryegrass (Lolium multiflorum), dayflower (Virginia (VA) dayflower, Commelina virginica), field bindweed (Convolvulus arvensis), morningglory (Ipomoea coccinea), nightshade (eastern black nightshade, Solanum ptycanthum), kochia (Kochia scoparia), yellow nutsedge (Cyperus esculentus), cocklebur (common cocklebur, Xanthium strumarium), smartweed (ladysthumb smartweed, and hairy beggarticks (Bidens pilosa), were planted into a silt loam soil and treated preemergence with test chemicals formulated in a non-phytotoxic solvent mixture which included a surfactant.
(§2) At the same time, plants from these crop and weed species and also horseweed (Canada horseweed, Conyza canadensis), waterhemp_RES1, (ALS & Triazine resistant common waterhemp, Amaranthus rudis), and waterhemp_RES2, (ALS & HPPD resistant common waterhemp, Amaranthus rudis) were planted in pots containing Redi-Earth® planting medium (Scotts Company, 14111 Scottslawn Road, Marysville, Ohio 43041) comprising spaghnum peat moss, vermiculite, wetting agent and starter nutrients were treated with postemergence applications of test chemicals formulated in the same manner. Plants ranged in height from 2 to 18 cm for postemergence treatments (1- to 4-leaf stage). Treated plants and controls were maintained in a greenhouse for 14 to 21 days, after which time all species were compared to controls and visually evaluated. Plant response ratings, summarized in Table E, are based on a scale of 0 to 100 where 0 is no effect and 100 is complete control. A dash (-) response means no test result.

wild poinsettia = assay: Test E postemergence; format: in vivo, Euphorbia heterophylla; conditions: Euphorbia heterophylla, post-emergence, read-out: Plant response rating, Poinsettia, Wild
From the text: as §1, §2

bromegrass, downy = assay: Test D preemergence; format: in vivo, Bromus tectorum; conditions: Bromus tectorum, pre-emergence
How it was run: (§3)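 Plant response is a visual score from 0 (no effect) to 100 (complete control) relative to controls. Plants were kept in a controlled growth environment for 7 to 21 days after spraying. Preemergence treatments went onto silt loam soil; postemergence ones onto 1- to 4-leaf seedlings.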

field violet = assay: Test D postemergence; format: in vivo, Viola arvensis; conditions: Viola arvensis, post-emergence
How it was run: as §3

pigweed = assay: Test D postemergence; format: in vivo, Amaranthus retroflexus; conditions: Amaranthus retroflexus, post-emergence
How it was run: as §3

Italian ryegrass [1] = assay: Test D preemergence; format: in vivo, Lolium multiflorum; conditions: Lolium multiflorum, pre-emergence
How it was run: as §3

chickweed = assay: Test D postemergence; format: in vivo, Stellaria media; conditions: Stellaria media, post-emergence
How it was run: as §3

Italian ryegrass [2] = assay: Test E postemergence; format: in vivo, Lolium multiflorum; conditions: Lolium multiflorum, post-emergence, read-out: Plant response rating, Ryegrass, Italian
From the text: as §1, §2

deadnettle = assay: Test D preemergence; format: in vivo, Lamium amplexicaule; conditions: Lamium amplexicaule, pre-emergence
How it was run: as §3

canarygrass = assay: Test D preemergence; format: in vivo, Phalaris minor; conditions: Phalaris minor, pre-emergence
How it was run: as §3

field bindweed = assay: Test E postemergence; format: in vivo, Convolvulus arvensis; conditions: Convolvulus arvensis, post-emergence, read-out: Plant response rating, Field Bindweed
How it was run: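 Test chemicals formulated in a non-phytotoxic solvent mixture containing a surfactant were applied preemergence to seeds in silt loam soil or postemergence to plants at the 1- to 4-leaf stage in potting mix. After 14 to 21 days in a greenhouse, injury was visually rated against controls on a 0-100 scale (0 = no effect, 100 = complete control).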

spring barley = assay: Test D preemergence; format: in vivo, Hordeum vulgare; conditions: Hordeum vulgare, pre-emergence
How it was run: as §3

[3] = Postemergence, 31 g ai/ha, scale 0 to 100
[4] = Postemergence, 62 g ai/ha, scale 0 to 100
[5] = Postemergence, 125 g ai/ha, scale 0 to 100
[6] = postemergence, 8 g ai/ha, scale 0 to 100, 0 no effect, 100 complete control
[7] = postemergence, 16 g ai/ha, scale 0 to 100, 0 no effect, 100 complete control

Clc1cnc(Oc2ccccc2-n2cc(Br)cn2)nc1 [Compound 7, 2-[2-(4-bromo-1H-pyrazol-1-yl)phenoxy]-5-chloropyrimidine]
15%: pest or weed control at 8 g/ha (field bindweed; [6])
0%: pest or weed control at 31 g/ha (barnyardgrass; [3]) | pest or weed control at 8 g/ha (barnyardgrass; [6]) | pest or weed control at 16 g/ha (barnyardgrass; [7]) | pest or weed control at 8 g/ha (wild poinsettia; [6]) | pest or weed control at 16 g/ha (bromegrass, downy; 16 g ai/ha, scale 0 (no effect) to 100 (complete control), read-out: Plant response rating, Bromegrass, Downy) | pest or weed control at 31 g/ha (bromegrass, downy; 31 g ai/ha, scale 0-100, read-out: Plant response rating, Bromegrass, Downy) | pest or weed control at 62 g/ha (bromegrass, downy; 62 g ai/ha, scale 0-100, read-out: Plant response rating, Bromegrass, Downy) | pest or weed control at 125 g/ha (bromegrass, downy; 125 g ai/ha, scale 0-100, read-out: Plant response rating, Bromegrass, Downy) | pest or weed control at 250 g/ha (bromegrass, downy; 250 g ai/ha, scale 0-100, read-out: Plant response rating, Bromegrass, Downy) | pest or weed control at 16 g/ha (Italian ryegrass [1]; 16 g ai/ha, scale 0 (no effect) to 100 (complete control), read-out: Plant response rating, Ryegrass, Italian) | pest or weed control at 31 g/ha (Italian ryegrass [1]; 31 g ai/ha, scale 0 (no effect) to 100 (complete control), read-out: Plant response rating, Ryegrass, Italian) | pest or weed control at 62 g/ha (Italian ryegrass [1]; 62 g ai/ha, scale 0-100, read-out: Plant response rating, Ryegrass, Italian) | pest or weed control at 125 g/ha (Italian ryegrass [1]; 125 g ai/ha, scale 0-100, read-out: Plant response rating, Ryegrass, Italian) | pest or weed control at 31 g/ha (Italian ryegrass [2]; [3]) | pest or weed control at 62 g/ha (Italian ryegrass [2]; [4]) | pest or weed control at 125 g/ha (Italian ryegrass [2]; [5]) | pest or weed control at 8 g/ha (Italian ryegrass [2]; [6]) | pest or weed control at 16 g/ha (Italian ryegrass [2]; [7]) | pest or weed control at 16 g/ha (deadnettle; 16 g ai/ha, scale 0 (no effect) to 100 (complete control), read-out: Plant response rating, Deadnettle) | pest or weed control at 31 g/ha (deadnettle; 31 g ai/ha, scale 0-100, read-out: Plant response rating, Deadnettle) | pest or weed control at 16 g/ha (canarygrass; 16 g ai/ha, scale 0 (no effect) to 100 (complete control), read-out: Plant response rating, Canarygrass) | pest or weed control at 31 g/ha (canarygrass; 31 g ai/ha, scale 0-100, read-out: Plant response rating, Canarygrass) | pest or weed control at 62 g/ha (canarygrass; 62 g ai/ha, scale 0-100, read-out: Plant response rating, Canarygrass) | pest or weed control at 125 g/ha (canarygrass; 125 g ai/ha, scale 0-100, read-out: Plant response rating, Canarygrass) | plant injury at 16 g/ha (spring barley; 16 g ai/ha, scale 0 (no effect) to 100 (complete control), read-out: Plant response rating, Barley, Spring) | plant injury at 31 g/ha (spring barley; 31 g ai/ha, scale 0-100, read-out: Plant response rating, Barley, Spring) | plant injury at 62 g/ha (spring barley; 62 g ai/ha, scale 0-100, read-out: Plant response rating, Barley, Spring) | plant injury at 125 g/ha (spring barley; 125 g ai/ha, scale 0-100, read-out: Plant response rating, Barley, Spring) | plant injury at 250 g/ha (spring barley; 250 g ai/ha, scale 0-100, read-out: Plant response rating, Barley, Spring)
60%: pest or weed control at 62 g/ha (wild poinsettia; [4]) | pest or weed control at 125 g/ha (wild poinsettia; [5]) | pest or weed control at 125 g/ha (chickweed; 125 g ai/ha, scale 0 to 100 (0 no effect, 100 complete control), read-out: Plant response rating, Chickweed)
90%: pest or weed control at 31 g/ha (pigweed; 31 g ai/ha, scale 0 to 100 (0 no effect, 100 complete control), read-out: Plant response rating, Pigweed)
5%: pest or weed control at 250 g/ha (Italian ryegrass [1]; 250 g ai/ha, scale 0-100, read-out: Plant response rating, Ryegrass, Italian)
70%: pest or weed control at 62 g/ha (field violet; 62 g ai/ha, scale 0 to 100 (0 no effect, 100 complete control), read-out: Plant response rating, Field Violet) | pest or weed control at 125 g/ha (field violet; 125 g ai/ha, scale 0 to 100 (0 no effect, 100 complete control), read-out: Plant response rating, Field Violet) | pest or weed control at 250 g/ha (field violet; 250 g ai/ha, scale 0 to 100 (0 no effect, 100 complete control), read-out: Plant response rating, Field Violet) | pest or weed control at 16 g/ha (pigweed; 16 g ai/ha, scale 0-100, read-out: Plant response rating, Pigweed) | pest or weed control at 125 g/ha (field bindweed; [5])
50%: pest or weed control at 62 g/ha (field bindweed; [4])
100%: pest or weed control at 62 g/ha (pigweed; 62 g ai/ha, scale 0 to 100 (0 no effect, 100 complete control), read-out: Plant response rating, Pigweed) | pest or weed control at 125 g/ha (pigweed; 125 g ai/ha, scale 0 to 100 (0 no effect, 100 complete control), read-out: Plant response rating, Pigweed) | pest or weed control at 250 g/ha (pigweed; 250 g ai/ha, scale 0 to 100 (0 no effect, 100 complete control), read-out: Plant response rating, Pigweed)
10%: pest or weed control at 62 g/ha (barnyardgrass; [4]) | pest or weed control at 125 g/ha (barnyardgrass; [5]) | pest or weed control at 16 g/ha (field violet; 16 g ai/ha, scale 0-100, read-out: Plant response rating, Field Violet) | pest or weed control at 16 g/ha (chickweed; 16 g ai/ha, scale 0-100, read-out: Plant response rating, Chickweed) | pest or weed control at 31 g/ha (chickweed; 31 g ai/ha, scale 0 to 100 (0 no effect, 100 complete control), read-out: Plant response rating, Chickweed) | pest or weed control at 62 g/ha (deadnettle; 62 g ai/ha, scale 0-100, read-out: Plant response rating, Deadnettle)
20%: pest or weed control at 31 g/ha (field violet; 31 g ai/ha, scale 0 to 100 (0 no effect, 100 complete control), read-out: Plant response rating, Field Violet) | pest or weed control at 62 g/ha (chickweed; 62 g ai/ha, scale 0 to 100 (0 no effect, 100 complete control), read-out: Plant response rating, Chickweed) | pest or weed control at 125 g/ha (deadnettle; 125 g ai/ha, scale 0-100, read-out: Plant response rating, Deadnettle) | pest or weed control at 16 g/ha (field bindweed; [7])
80%: pest or weed control at 250 g/ha (chickweed; 250 g ai/ha, scale 0 to 100 (0 no effect, 100 complete control), read-out: Plant response rating, Chickweed) | pest or weed control at 250 g/ha (deadnettle; 250 g ai/ha, scale 0-100, read-out: Plant response rating, Deadnettle)
25%: pest or weed control at 250 g/ha (canarygrass; 250 g ai/ha, scale 0-100, read-out: Plant response rating, Canarygrass)
30%: pest or weed control at 31 g/ha (wild poinsettia; [3]) | pest or weed control at 16 g/ha (wild poinsettia; [7]) | pest or weed control at 31 g/ha (field bindweed; [3])
